The numbers were not newly measured in patent US11185540B2, “Extended release compositions of opioid antagonists and phosphodiesterase 5 inhibitors” (Pardon My Scotch, LLC, priority 2017, dated 2021), which cites them from elsewhere.

Series [1] has as its target PDE5 (Homo sapiens, UniProt O76074).
Series [2] addresses PDE9 (Homo sapiens, UniProt O76083).
The conditions of series [3]: in vivo.
The test system of series [4] is PDE6.

Sequence of PDE9 (O76083 whole entry): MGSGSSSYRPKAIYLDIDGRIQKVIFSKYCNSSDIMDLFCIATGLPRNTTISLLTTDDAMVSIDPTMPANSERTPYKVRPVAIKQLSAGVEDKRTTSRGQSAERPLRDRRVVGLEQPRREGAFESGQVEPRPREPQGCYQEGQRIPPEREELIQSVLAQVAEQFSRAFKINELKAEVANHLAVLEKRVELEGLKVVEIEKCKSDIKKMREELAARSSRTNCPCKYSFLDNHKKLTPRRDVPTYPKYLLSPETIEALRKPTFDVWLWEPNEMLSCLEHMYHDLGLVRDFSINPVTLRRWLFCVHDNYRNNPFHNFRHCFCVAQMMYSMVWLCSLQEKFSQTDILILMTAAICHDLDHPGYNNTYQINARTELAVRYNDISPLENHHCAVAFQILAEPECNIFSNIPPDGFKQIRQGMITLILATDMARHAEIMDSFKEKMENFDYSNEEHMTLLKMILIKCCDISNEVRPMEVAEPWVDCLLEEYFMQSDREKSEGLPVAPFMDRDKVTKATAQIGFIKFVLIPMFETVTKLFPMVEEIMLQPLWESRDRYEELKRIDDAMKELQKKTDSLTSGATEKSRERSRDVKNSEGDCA

With `CN1CC(=O)N2[C@H](c3ccc4c(c3)OCO4)c3[nH]c4ccccc4c3C[C@@H]2C1=O` [tadalafil, pyrazino[1′,2′:1,6]pyrido[3,4-b]indole-1,4-dione, 6-(1,3-benzodioxol-5-yl)-2,3,6,7,12,12a-hexahydro-2-methyl-, (6R,12aR)-], the “Inhibition of PDE5” value in series [1] was “inhibit”.
As for `CCCc1nn(C)c2c(=O)[nH]c(-c3cc(S(=O)(=O)N4CCN(C)CC4)ccc3OCC)nc12` [sildenafil], the “Inhibition of PDE9” value in series [2] is given as “inhibit”. In addition, in series [3], the Plasma half-life is 5 to 7 h. Besides, the “Inhibition of PDE6” value in series [4] is recorded as “inhibit”.
For `CCCc1nc(C)c2c(=O)[nH]c(-c3cc(S(=O)(=O)N4CCN(CC)CC4)ccc3OCC)nn12` [vardenafil], in series [3], the Plasma half-life is 5 to 7 h.
